Measurements: US20090023813A1, “Diphenyl Urea Derivatives” (Arpida AG, priority 2005, published 2009)
Converted amounts (≈) assume the structure as drawn. Where two headings read alike, the source gives them in different places.

Legend:
Type in all cases: cell-based
B. distasonis 5770 = assay: Antimicrobial susceptibility testing of anaerobic bacteria (microbroth dilution, Wilkins Chalgren Broth); details: Parabacteroides distasonis, representative pathogens for gastro-intestinal infections, read-out: Minimum Inhibitory Concentration (MIC) B. distasonis 5770
Description: (§1) Antimicrobial susceptibility testing was performed in accordance with the Clinical and Laboratory Standards Institute (CLSI). Streptococci (S. pneumoniae, S. pyogenes, S. viridans) were tested following the CLSI methodology with the exception that Todd Hewitt Broth without blood was used. Anaerobic bacteria (P. acnes, B. distasonis) were tested following CLSI (formerly NCCLS) guidelines except for using microbroth dilutions in Wilkins Chalgren Broth. National Committee for Clinical Laboratory Standards (NCCLS). Methods for Anti-microbial Susceptibility Testing of Anaerobic Bacteria; Approved Standard—Sixth Edition (2004). NCCLS document M11-A6.

P. acnes 6390 = assay: as above; details: Cutibacterium acnes, representative pathogens for skin infections, read-out: Minimum Inhibitory Concentration (MIC) P. acnes 6390
Description: as §1

S. aureus ATCC 25923 = assay: Antimicrobial susceptibility testing (CLSI broth dilution MIC); details: Staphylococcus aureus, ATCC25923
Description: (§2) Antimicrobial susceptibility testing was performed in accordance with the Clinical and Laboratory Standards Institute (CLSI).
(§3) Clinical and Laboratory Standards Institute (CLSI; formerly NCCLS): Methods for Dilution Antimicrobial Susceptibility Tests for Bacteria That Grow Aerobically; Approved Standard—Seventh Edition (2006). Clinical and Laboratory Standards Institute document M7-A7.

E. faecalis VanB E80-8 = assay: as above; details: for MIC: Enterococcus faecalis, VANBE808, representative pathogens for skin infections, read-out: Minimum Inhibitory Concentration (MIC) E. faecalis VanB E80-8; for Minimum Inhibitory Concentration (MIC) E. faecalis VanB E80-8: representative pathogens for gastro-intestinal infections
Description: as §2, §3

S. aureus MRSA 101 = assay: as above; details: Staphylococcus aureus
Description: as §2, §3

S. aureus MRSA 39 = assay: as above; details: for MIC: Staphylococcus aureus, MRSA, representative pathogens for nasal colonization, read-out: Minimum Inhibitory Concentration (MIC) S. aureus MRSA 39
Description: as §2, §3

S. epidermidis MRSE 70 = assay: as above; details: for MIC: Staphylococcus epidermidis, MRSE, representative pathogens for nasal colonization, read-out: Minimum Inhibitory Concentration (MIC) S. epidermidis MRSE 70
Description: as §2, §3

S. pyogenes GAS-1 = assay: Antimicrobial susceptibility testing of streptococci (CLSI, Todd Hewitt Broth without blood); details: for MIC: Streptococcus pyogenes, GAS1, representative pathogens for ocular infections, read-out: Minimum Inhibitory Concentration (MIC) S. pyogenes GAS-1; for Minimum Inhibitory Concentration (MIC) S. pyogenes GAS-1: representative pathogens for skin infections
Description: as §1, with “(CLSI). Clinical and Laboratory Standards Institute (CLSI; formerly NCCLS): Methods for Dilution Antimicrobial Susceptibility Tests for Bacteria That Grow Aerobically; Approved Standard—Seventh Edition (2006). Clinical and Laboratory Standards Institute document M7-A7.” for “(CLSI).”

S. viridans UHC7 = assay: as above; details: Streptococcus viridans, representative pathogens for dental infections, read-out: Minimum Inhibitory Concentration (MIC) S. viridans UHC7
Description: as §1, with “(CLSI). Clinical and Laboratory Standards Institute (CLSI; formerly NCCLS): Methods for Dilution Antimicrobial Susceptibility Tests for Bacteria That Grow Aerobically; Approved Standard—Seventh Edition (2006). Clinical and Laboratory Standards Institute document M7-A7.” for “(CLSI).”

S. pneumoniae 1/1 = assay: as above; details: Streptococcus pneumoniae, representative pathogens for ocular infections, read-out: Minimum Inhibitory Concentration (MIC) S. pneumoniae 1/1
Description: as §1, with “(CLSI). Clinical and Laboratory Standards Institute (CLSI; formerly NCCLS): Methods for Dilution Antimicrobial Susceptibility Tests for Bacteria That Grow Aerobically; Approved Standard—Seventh Edition (2006). Clinical and Laboratory Standards Institute document M7-A7.” for “(CLSI).”

[1] = representative pathogens for nasal colonization, read-out: Minimum Inhibitory Concentration (MIC) S. aureus ATCC 25923
[2] = representative pathogens for ocular infections, read-out: Minimum Inhibitory Concentration (MIC) S. aureus 25923
[3] = representative pathogens for nasal colonization, read-out: Minimum Inhibitory Concentration (MIC) S. aureus MRSA 101
[4] = representative pathogens for ocular infections, read-out: Minimum Inhibitory Concentration (MIC) S. aureus MRSA101
[5] = representative pathogens for ocular infections
[6] = representative pathogens for skin infections

Compound	MIC (B. distasonis 5770) [µg/mL]	MIC (P. acnes 6390) [µg/mL]	MIC (S. aureus ATCC 25923; [1]) [µg/mL]	MIC (S. aureus ATCC 25923; [2]) [µg/mL]	MIC (E. faecalis VanB E80-8) [µg/mL]	Minimum Inhibitory Concentration (MIC) E. faecalis VanB E80-8 (E. faecalis VanB E80-8) [micrograms/ml]	MIC (S. aureus MRSA 101; [3]) [µg/mL]	MIC (S. aureus MRSA 101; [4]) [µg/mL]	MIC (S. aureus MRSA 39) [µg/mL]	Minimum Inhibitory Concentration (MIC) S. aureus MRSA 39 (S. aureus MRSA 39; [5]) [micrograms/ml]	Minimum Inhibitory Concentration (MIC) S. aureus MRSA 39 (S. aureus MRSA 39; [6]) [micrograms/ml]	MIC (S. epidermidis MRSE 70) [µg/mL]	Minimum Inhibitory Concentration (MIC) S. epidermidis MRSE 70 (S. epidermidis MRSE 70; [5]) [micrograms/ml]	Minimum Inhibitory Concentration (MIC) S. epidermidis MRSE 70 (S. epidermidis MRSE 70; [6]) [micrograms/ml]	MIC (S. pyogenes GAS-1) [µg/mL]	Minimum Inhibitory Concentration (MIC) S. pyogenes GAS-1 (S. pyogenes GAS-1) [micrograms/ml]	MIC (S. viridans UHC7) [µg/mL]	MIC (S. pneumoniae 1/1) [µg/mL]
O=C(Nc1cc(Br)cc(C(F)(F)F)c1)Nc1ccc(Cl)c(C(F)(F)F)c1 [Example 1, 1-(3-Bromo-5-trifluoromethyl-phenyl)-3-(4-chloro-3-trifluoromethyl-phenyl)-urea]	0.5 (≈ 1.08 µM)	≤ 0.03	0.5 (≈ 1.08 µM)	0.5 (≈ 1.08 µM)	2 (≈ 4.33 µM)	2	0.125 (≈ 0.271 µM)	0.125 (≈ 0.271 µM)	0.25 (≈ 0.542 µM)	0.25	0.25	0.25 (≈ 0.542 µM)	0.25	0.25	0.25 (≈ 0.542 µM)	0.25	0.5 (≈ 1.08 µM)	0.125 (≈ 0.271 µM)
O=C(Nc1cc(Cl)cc(C(F)(F)F)c1)Nc1ccc(Cl)c(C(F)(F)F)c1 [Example 2, 1-(3-Chloro-5-trifluoromethyl-phenyl)-3-(4-chloro-3-trifluoromethyl-phenyl)-urea]	1 (≈ 2.4 µM)	≤ 0.03	0.25 (≈ 0.599 µM)	0.25 (≈ 0.599 µM)	1 (≈ 2.4 µM)	1	0.125 (≈ 0.3 µM)	0.125 (≈ 0.3 µM)	0.25 (≈ 0.599 µM)	0.25	0.25	0.25 (≈ 0.599 µM)	0.25	0.25	0.25 (≈ 0.599 µM)	0.25	0.5 (≈ 1.2 µM)	0.06 (≈ 0.144 µM)
FC(F)(F)c1cc(Br)cc(NC(=S)Nc2ccc(Cl)c(C(F)(F)F)c2)c1 [Example 3, 1-(3-Bromo-5-trifluoromethyl-phenyl)-3-(4-chloro-3-trifluoromethyl-phenyl)-thiourea]	1 (≈ 2.09 µM)	≤ 0.03	0.125 (≈ 0.262 µM)	0.125 (≈ 0.262 µM)	1 (≈ 2.09 µM)	1	0.5 (≈ 1.05 µM)	0.5 (≈ 1.05 µM)	0.25 (≈ 0.523 µM)	0.25	0.25	0.25 (≈ 0.523 µM)	0.25	0.25	0.25 (≈ 0.523 µM)	0.25	1 (≈ 2.09 µM)	0.25 (≈ 0.523 µM)
